Experimental findings from ChEMBL document CHEMBL5230081, “Battle against Vancomycin-Resistant Bacteria: Recent Developments in Chemical Strategies” (J Med Chem, 2019) are described below.

Type in all cases: functional
One test relates to Enterococcus faecium. As to the kind of experiment: Antimicrobial activity against Vancomycin-resistant (Van A) Enterococcus faecium ATCC 51559 assessed as reduction in microbial growth.
Test [1] concerns Staphylococcus aureus. Kind of test: Antibacterial activity against Vancomycin-intermediate Staphylococcus aureus NRS1 assessed as bacterial growth inhibition.
In test [2] the test system is Staphylococcus aureus. As to the kind of experiment: Antimicrobial activity against Vancomycin-resistant Staphylococcus aureus incubated for 20 hrs by broth dilution method.
The subject of the next test is Enterococcus faecalis. As to the kind of experiment: Antimicrobial activity against Vancomycin - resistant Enterococcus faecalis assessed as inhibition of bacterial growth.
Where [3] appears, read: Enterococcus faecium, ATCC 51559, read-out: MIC.

Each structure is given as a SMILES string. In brackets after ≈: the same amount, converted by molar mass. A value given as a limit tells only on which side of the number the result lay.

Consider `CN[C@H]1C(=O)N[C@@H]2Cc3ccc(cc3)Oc3cc4cc(c3O[C@@H]3O[C@H](C(=O)O)[C@@H](O)[C@H](O)[C@H]3NC(=O)CCCCCCCCC(C)C)Oc3ccc(cc3Cl)[C@@H](O)[C@@H]3NC(=O)[C@H](NC(=O)[C@@H]4NC(=O)[C@@H](NC2=O)c2cc(cc(O)c2Cl)Oc2cc1ccc2O)c1ccc(O)c(c1)-c1c(O[C@H]2O[C@H](CO)[C@@H](O)[C@H](O)[C@@H]2O)cc(O)cc1[C@@H](C(=O)NCCCN(C)C)NC3=O` [DALBAVANCIN], for which, in the test with Enterococcus faecium, the MIC was 0.1 µg/mL.
On to `CN[C@H](CC(C)C)C(=O)N[C@H]1C(=O)N[C@@H](CC(N)=O)C(=O)N[C@H]2C(=O)N[C@H]3C(=O)N[C@H](C(=O)N[C@H](C(=O)O)c4cc(OC)cc(OC)c4-c4cc3ccc4OC)[C@H](O)c3ccc(c(Cl)c3)Oc3cc2cc(c3OC)Oc2ccc(cc2Cl)[C@H]1O`, for which the MIC in the test on Enterococcus faecium was determined as 1.6 µg/mL.
Turning to `CN[C@H](CC(C)C)C(=O)N[C@H]1C(=O)N[C@@H](CC(N)=O)C(=O)N[C@H]2C(=O)N[C@H]3C(=O)N[C@H](C(=O)N[C@H](C(=O)O)c4cc(O)cc(O)c4-c4cc3ccc4O)[C@H](O)c3ccc(c(Cl)c3)Oc3cc2cc(c3O[C@@H]2O[C@H](CO)[C@@H](O)[C@H](O)[C@H]2O[C@H]2C[C@](C)(NCc3cccc(OCC/C=C\CCOc4cccc(CN[C@@]5(C)C[C@H](O[C@H]6[C@H](Oc7c8cc9cc7Oc7ccc(cc7Cl)[C@@H](O)[C@@H](NC(=O)[C@@H](CC(C)C)NC)C(=O)N[C@@H](CC(N)=O)C(=O)N[C@H]9C(=O)N[C@H]7C(=O)N[C@H](C(=O)N[C@H](C(=O)O)c9cc(O)cc(O)c9-c9cc7ccc9O)[C@H](O)c7ccc(c(Cl)c7)O8)O[C@H](CO)[C@@H](O)[C@@H]6O)O[C@@H](C)[C@H]5O)c4)c3)[C@H](O)[C@H](C)O2)Oc2ccc(cc2Cl)[C@H]1O`, the MIC with Staphylococcus aureus [1] amounted to 1 µg/mL (≈ 0.313 µM).
Turning to `CCCCCCCCCCCCCC(=O)N[C@@H](CCCCN)C(=O)N[C@@H](CCCCN)C(=O)N[C@@H](CCCCN)C(=O)NC(CCCCNC(=O)[C@H]1NC(=O)[C@H]2NC(=O)[C@H](NC(=O)[C@@H]3NC(=O)[C@H](CC(N)=O)NC(=O)[C@H](NC(=O)[C@@H](CC(C)C)NC)[C@H](O)c4ccc(c(Cl)c4)Oc4cc3cc(c4O[C@@H]3O[C@H](CO)[C@@H](O)[C@H](O)[C@H]3O[C@H]3C[C@](C)(N)[C@H](O)[C@H](C)O3)Oc3ccc(cc3Cl)[C@H]2O)c2ccc(O)c(c2)-c2c(O)cc(O)cc21)C(=O)O` (stereo partly specified), the MIC against Staphylococcus aureus [2] was 0.05 µg/mL; with Enterococcus faecium it was 0.125 µg/mL; with Staphylococcus aureus [1], 0.03 µg/mL (≈ 0.0138 µM).
Consider `CN[C@H](CC(C)C)C(=O)N[C@H]1C(=O)N[C@@H](CC(N)=O)C(=O)N[C@H]2C(=O)N[C@H]3C(=O)N[C@H](C(=O)N[C@H](C(=O)NCCCCCCNC(=O)[C@H]4NC(=O)[C@H]5NC(=O)[C@H](NC(=O)[C@@H]6NC(=O)[C@H](CC(N)=O)NC(=O)[C@H](NC(=O)[C@@H](CC(C)C)NC)[C@H](O)c7ccc(c(Cl)c7)Oc7cc6cc(c7O[C@@H]6O[C@H](CO)[C@@H](O)[C@H](O)[C@H]6O[C@H]6C[C@](C)(N)[C@H](O)[C@H](C)O6)Oc6ccc(cc6Cl)[C@H]5O)c5ccc(O)c(c5)-c5c(O)cc(O)cc54)c4cc(O)cc(O)c4-c4cc3ccc4O)[C@H](O)c3ccc(c(Cl)c3)Oc3cc2cc(c3O[C@@H]2O[C@H](CO)[C@@H](O)[C@H](O)[C@H]2O[C@H]2C[C@](C)(N)[C@H](O)[C@H](C)O2)Oc2ccc(cc2Cl)[C@H]1O`, for which, in the test on Staphylococcus aureus [2], the minimal inhibitory concentration (MIC) was 32 µM.
For `CCCCCCCCCC(=O)OC[C@H]1O[C@@H](Oc2c3cc4cc2Oc2ccc(cc2Cl)[C@@H](O)[C@@H](NC(=O)[C@@H](CC(C)C)NC)C(=O)N[C@@H](CC(N)=O)C(=O)N[C@H]4C(=O)N[C@H]2C(=O)N[C@H](C(=O)N[C@H](C(=O)O)c4ccccc4-c4cccc2c4)[C@H](O)c2ccc(c(Cl)c2)O3)[C@H](O[C@H]2C[C@](C)(N)[C@H](O)[C@H](C)O2)[C@@H](O)[C@@H]1O`, the MIC with Enterococcus faecium came to 1 µg/mL.
As for `CN[C@H](CC(C)C)C(=O)N[C@H]1C(=O)N[C@@H](CC(N)=O)C(=O)N[C@H]2C(=O)N[C@H]3C(=O)N[C@H](C(=O)N[C@H](C(=O)O)c4ccccc4-c4cccc3c4)[C@H](O)c3ccc(c(Cl)c3)Oc3cc2cc(c3O[C@@H]2O[C@H](CO)[C@@H](O)[C@H](O)[C@H]2O[C@H]2C[C@](C)(NCc3ccc(OCCCN4C(=O)[C@@H]5[C@H](C4=O)[C@@H](C)C[C@H]5/C=C/c4ccccc4)cc3)[C@H](O)[C@H](C)O2)Oc2ccc(cc2Cl)[C@H]1O`, the values for the MIC in the test with Enterococcus faecium and in the test with Enterococcus faecium (setting [3]) were 2 µg/mL and 31 µg/mL, respectively.
With `CN[C@H](CC(C)C)C(=O)N[C@H]1C(=O)N[C@@H](CC(N)=O)C(=O)N[C@H]2C(=O)N[C@H]3C(=O)N[C@H](C(=O)N[C@H](C(=O)NCCCNCCCCCCCCNCCCNC(=O)[C@H]4NC(=O)[C@H]5NC(=O)[C@H](NC(=O)[C@@H]6NC(=O)[C@H](CC(N)=O)NC(=O)[C@H](NC(=O)[C@@H](CC(C)C)NC)[C@H](O)c7ccc(c(Cl)c7)Oc7cc6cc(c7O[C@@H]6O[C@H](CO)[C@@H](O)[C@H](O)[C@H]6O[C@H]6C[C@](C)(N)[C@H](O)[C@H](C)O6)Oc6ccc(cc6Cl)[C@H]5O)c5ccc(O)c(c5)-c5c(O)cc(O)cc54)c4cc(O)cc(O)c4-c4cc3ccc4O)[C@H](O)c3ccc(c(Cl)c3)Oc3cc2cc(c3O)Oc2ccc(cc2Cl)[C@H]1O`, the values for the MIC in the test on Enterococcus faecium and in the test on Enterococcus faecium (setting [3]) were 0.1 µM and 48 µM, respectively.
For `CCCCCCCCCC(=O)O[C@H]1[C@H](O)[C@@H](O[C@H]2C[C@](C)(N)[C@H](O)[C@H](C)O2)[C@H](Oc2c3cc4cc2Oc2ccc(cc2Cl)[C@@H](O)[C@@H](NC(=O)[C@@H](CC(C)C)NC)C(=O)N[C@@H](CC(N)=O)C(=O)N[C@H]4C(=O)N[C@H]2C(=O)N[C@H](C(=O)N[C@H](C(=O)O)c4ccccc4-c4cccc2c4)[C@H](O)c2ccc(c(Cl)c2)O3)O[C@@H]1CO`, the MIC in the test with Enterococcus faecium (setting [3]) came out at 16 µg/mL.
In the case of `CC(=O)OCC1=C(C(=O)O)N2C(=O)[C@@H](NC(=O)CCC[C@@H](N)C(=O)O)[C@H]2SC1` [CEPHALOSPORIN C], the MIC was < 0.5 µg/mL in the test with Enterococcus faecalis and 1 µg/mL in the test with Staphylococcus aureus [2].
With `CN[C@H](CC(C)C)C(=O)N[C@H]1C(=O)N[C@@H](CC(N)=O)C(=O)N[C@H]2C(=O)N[C@H]3C(=O)N[C@H](C(=O)N[C@H](C(=O)O)c4cc(O)cc(O)c4-c4cc3ccc4O)[C@H](O)c3ccc(c(Cl)c3)Oc3cc2cc(c3O[C@@H]2O[C@H](CO)[C@@H](O)[C@H](O)[C@H]2O[C@H]2C[C@](C)(N)[C@H](O)[C@H](C)O2)Oc2ccc(cc2/C=C/c2ccc(-c3ccccc3)cc2)[C@H]1O`, the MIC in the test on Enterococcus faecium worked out at 2 µg/mL.
Take `CN[C@H](CC(C)C)C(=O)N[C@H]1C(=O)N[C@@H](CC(N)=O)C(=O)N[C@H]2C(=N)N[C@H]3C(=O)N[C@H](C(=O)N[C@H](C(=O)O)c4cc(O)cc(O)c4-c4cc3ccc4O)[C@H](O)c3ccc(c(Cl)c3)Oc3cc2cc(c3O[C@@H]2O[C@H](CO)[C@@H](O)[C@H](O)[C@H]2O[C@H]2C[C@](C)(N)[C@H](O)[C@H](C)O2)Oc2ccc(cc2Cl)[C@H]1O`: the MIC with Enterococcus faecalis and in the test on Enterococcus faecium (setting [3]) was 0.5 µg/mL throughout.
`CN[C@@H](CC(C)C)C(=O)N[C@@H]1C(=O)N[C@H](CC(N)=O)C(=O)N[C@@H]2C(=O)N[C@@H]3C(=O)N[C@@H](C(=O)N[C@@H](C(=O)NCCCSSCCCNC(=O)[C@H]4NC(=O)[C@H]5NC(=O)[C@H](NC(=O)[C@@H]6NC(=O)[C@H](CC(N)=O)NC(=O)[C@H](NC(=O)[C@@H](CC(C)C)NC)[C@H](O)c7ccc(c(Cl)c7)Oc7cc6cc(c7O[C@@H]6O[C@H](CO)[C@@H](O)[C@H](O)[C@H]6O[C@H]6C[C@](C)(N)[C@H](O)[C@H](C)O6)Oc6ccc(cc6Cl)[C@H]5O)c5ccc(O)c(c5)-c5c(O)cc(O)cc54)c4cc(O)cc(O)c4-c4cc3ccc4O)[C@@H](O)c3ccc(c(Cl)c3)Oc3cc2cc(c3O[C@@H]2O[C@H](CO)[C@@H](O)[C@H](O)[C@H]2O[C@H]2C[C@](C)(N)[C@H](O)[C@H](C)O2)Oc2ccc(cc2Cl)[C@@H]1O` registered an MIC against Staphylococcus aureus [2] of 15 µM.
`CN[C@H](CC(C)C)C(=O)N[C@H]1C(=O)N[C@@H](CC(N)=O)C(=O)N[C@H]2C(=N)N[C@H]3C(=O)N[C@H](C(=O)N[C@H](C(=O)O)c4cc(O)cc(O)c4-c4cc3ccc4O)[C@H](O)c3ccc(c(Cl)c3)Oc3cc2cc(c3O[C@@H]2O[C@H](CO)[C@@H](O)[C@H](O)[C@H]2O[C@H]2C[C@](C)(NCc3ccc(-c4ccc(Cl)cc4)cc3)[C@H](O)[C@H](C)O2)Oc2ccc(cc2Cl)[C@H]1O`: the MIC in the test on Enterococcus faecalis came to 0.005 µg/mL; in the test on Enterococcus faecium it was 0.06 µg/mL; in the test on Enterococcus faecium (setting [3]) it was 0.005 µg/mL.
For `C=C1NC(=O)[C@H]([C@@H](C)CC)NC(=O)[C@@H](NC(=O)/C(=C/C)NC(=O)[C@@H](N)[C@@H](C)CC)CSC[C@@H](C(=O)N[C@H]2C(=O)N3CCC[C@H]3C(=O)NCC(=O)N[C@H](C(=O)N[C@@H](CCCCN)C(=O)NCCCn3cc(CCC(=O)NCCCOCCOCCOCCCNC(=O)[C@H]4NC(=O)[C@H]5NC(=O)[C@H](NC(=O)[C@@H]6NC(=O)[C@H](CC(N)=O)NC(=O)[C@H](NC(=O)[C@@H](CC(C)C)NC)[C@H](O)c7ccc(c(Cl)c7)Oc7cc6cc(c7O[C@@H]6O[C@H](CO)[C@@H](O)[C@H](O)[C@H]6O[C@H]6C[C@](C)(N)[C@H](O)[C@H](C)O6)Oc6ccc(cc6Cl)[C@H]5O)c5ccc(O)c(c5)-c5c(O)cc(O)cc54)nn3)CS[C@@H]2C)NC(=O)[C@H]([C@@H](C)CC)NC1=O`, the MIC in the test with Enterococcus faecalis is 2.3 µM.
On to `CN[C@H](CC(C)C)C(=O)N[C@H]1C(=O)N[C@@H](CC(N)=O)C(=O)N[C@H]2C(=S)N[C@H]3C(=O)N[C@H](C(=O)N[C@H](C(=O)O)c4cc(O)cc(O)c4-c4cc3ccc4O)[C@H](O)c3ccc(c(Cl)c3)Oc3cc2cc(c3O[C@@H]2O[C@H](CO)[C@@H](O)[C@H](O)[C@H]2O[C@H]2C[C@](C)(NCc3ccc(-c4ccc(Cl)cc4)cc3)[C@H](O)[C@H](C)O2)Oc2ccc(cc2Cl)[C@H]1O`, for which the MIC in the test on Enterococcus faecalis was determined as 2 µg/mL; with Enterococcus faecium, 2 µg/mL; in the test on Enterococcus faecium (setting [3]) it was 4 µg/mL.

In general, MIC refers to the least concentration at which growth counts as inhibited.
